In patent US11535680B2, “Targeting metastasis stem cells through a fatty acid receptor (CD36)” (FUNDACIÓ INSTITUT DE RECERCA BIOMÈDICA (IRB BARCELONA), priority 2015, dated 2022):

Key:
OSCC cell lines = assay: shRNA-mediated CD36 depletion in orthotopic OSCC xenografts; assay type: in vivo, mouse; details: FaDu cells
Description: NOD scid gamma (NSG) (NOD.Cg-Prkdc^scid Il2rg^tm1Wjl/SzJ) mice were purchased from Charles River and crossed in-house. All mice were housed under a regimen of 12 h light/12 h dark cycles and SPF conditions, and all procedures were evaluated and approved by the CEEA (Ethical Committee for Animal Experimentation) from the Government of Catalunya. For establishing patient-derived tumour cells, tumours were implanted subcutaneously into NOD scid gamma mice immediately after tumour resection from the patient. Once the tumours had grown, they were collected, disaggregated, and tumour cells were FACS sorted and cultured as described below. For 5-bromo-2-deoxyuridine (BrdU) labelling experiments, mice were injected intraperitoneally with a single dose of 100 μg g^−1 BrdU (Invitrogen) and then analysed at 24 h. SCC intra-tongue injection was performed as previously described (Oskarsson et al., 2014; Nieman et al., 2011). […] Mice were monitored for the luciferase bioluminescent signal immediately after injection (T0) and once weekly thereafter with a Xenogen IVIS Imaging System-100 (Caliper Life Sciences). […] Data was quantified with the Living Image software version 4.4 (Caliper Life Sciences). Quantifications were calculated with unsaturated pixels. […]

OSCC cells = OSCC cells exposed in culture to palmitic acid, CD36+ cells by flow cytometry; assay type: cell-based, human; details: 2 days, 0.4 mM palmitic acid
Description: All cells were cultured in a humidified incubator at 37° C. with 5% CO2. SCC-25 (ATCC^R CRL-168™) and patient-derived cells (VDH-00, VDH-01 and VDH-02) were grown in keratinocyte serum-free media (KSFM, GIBCO) supplemented with 5 μg ml^−1 penicillin/streptomycin, 0.025 mg ml^−1 bovine pituitary extract and 0.2 μg ml^−1 of hEGF. JHU-029 cells (The Johns Hopkins University) were grown in RPMI (GIBCO) supplemented with 5 μg ml^−1 penicillin/streptomycin and 10% foetal bovine serum (FBS; GIBCO). FaDu (ATCC^R HTB-43™) and Detroit (ATCC^R CCL138™) cells were grown in EMEM (LONZA) supplemented with 5 μg ml^−1 penicillin/streptomycin and 10% FBS (GIBCO). MCF-7 cells (ATCC^r HTB-22™) were grown in EMEM (LONZA) supplemented with 5 mg ml^−1 penicillin/streptomycin, 0.01 mg ml^−1 human recombinant insulin and 10% FBS (GIBCO). The 501mel human cell line (kindly provided by Dr. Claudia Wellbrock, Manchester Cancer Research Centre, The University of Manchester, UK) was grown in DMEM supplemented with 5 mg ml^−1 penicillin/streptomycin and 10% FBS (GIBCO). HNACFS (Head and Neck tumour associated fibroblasts) were grown in DMEM supplemented with 5 mg ml^−1 penicillin/streptomycin, 10% FBS (GIBCO) and 1× insulin transferrin selenium G supplement (Invitrogen). OP9 cells were cultured and differentiated to adipocytes as previously described (Wolins et al., 2006). […]

SCC25 tumour cells = assay: Transplants of palmitic acid-treated OSCC cells; assay type: in vivo, mouse; details: cells treated in culture before transplant
Description: NOD scid gamma (NSG) (NOD.Cg-Prkdc^scid Il2rg^tm1Wjl/SzJ) mice were purchased from Charles River and crossed in-house. All mice were housed under a regimen of 12 h light/12 h dark cycles and SPF conditions, and all procedures were evaluated and approved by the CEEA (Ethical Committee for Animal Experimentation) from the Government of Catalunya. For establishing patient-derived tumour cells, tumours were implanted subcutaneously into NOD scid gamma mice immediately after tumour resection from the patient. Once the tumours had grown, they were collected, disaggregated, and tumour cells were FACS sorted and cultured as described below. For 5-bromo-2-deoxyuridine (BrdU) labelling experiments, mice were injected intraperitoneally with a single dose of 100 μg g^−1 BrdU (Invitrogen) and then analysed at 24 h. SCC intra-tongue injection was performed as previously described (Oskarsson et al., 2014; Nieman et al., 2011). Briefly, mice were anesthetized by intraperitoneal injection with a mixture of 50 mg per kg of ketamine and 0.5 mg per kg of medetomidin, and SCC cells resuspended in 30 μl PBS were injected into each mouse tongue with a BD ultra-fine 6 mm needle. For intravenous cell injection, mice were anesthetized with continuous administration of isofluorane gas and were injected by retro-orbital injection with 100,000 cells in 100 μl PBS. Mice were monitored for the luciferase bioluminescent signal immediately after injection (T0) and once weekly thereafter with a Xenogen IVIS Imaging System-100 (Caliper Life Sciences). Briefly, animals were injected by retro-orbital injection with 50 μl of D-luciferin (Promega) diluted in 1×PBS at 5 mg ml^−1. Continuous administration of isofluorane gas was provided to ensure anesthetizing animals during imaging. Data was quantified with the Living Image software version 4.4 (Caliper Life Sciences). Quantifications were calculated with unsaturated pixels. Color scale minimum and maximum values are shown in pictures.
All cells were cultured in a humidified incubator at 37° C. with 5% CO2. […]

shRNACD36 #99: lentiviral shRNA targeting CD36 (Sigma Aldrich), SEQ ID NO: 2 (CCGACGTTAATCTGAAAGGA)
lung metastasis (ability to colonize the lungs) (OSCC cell lines): absent

CCCCCCCCCCCCCCCC(=O)O [PA, palmitic acid]
percentage of CD36+ cells in culture (OSCC cells): robustly induced
inoculated mice with lung metastasis (SCC25 tumour cells): 10%
primary tumour growth (SCC25 tumour cells): without any effect
size and frequency of the LN metastasis (SCC25 tumour cells): significantly boosted
